Patent publication US9492471B2, “Methods of treating a disease or disorder associated with Bruton'S Tyrosine Kinase” (Celgene Avilomics Research, Inc., priority 2013, dated 2016)
Where two headings read alike, the source gives them in different places.

Key:
Assay in all cases: HotSpot kinase profiling
Format in all cases: biochemical
TYRO3/SKY = biological target: T1, TYRO3/SKY (Homo sapiens, UniProt Q06418)
T1 construct: purchased Reaction Biology Corp
T1 sequence (Q06418 41-890): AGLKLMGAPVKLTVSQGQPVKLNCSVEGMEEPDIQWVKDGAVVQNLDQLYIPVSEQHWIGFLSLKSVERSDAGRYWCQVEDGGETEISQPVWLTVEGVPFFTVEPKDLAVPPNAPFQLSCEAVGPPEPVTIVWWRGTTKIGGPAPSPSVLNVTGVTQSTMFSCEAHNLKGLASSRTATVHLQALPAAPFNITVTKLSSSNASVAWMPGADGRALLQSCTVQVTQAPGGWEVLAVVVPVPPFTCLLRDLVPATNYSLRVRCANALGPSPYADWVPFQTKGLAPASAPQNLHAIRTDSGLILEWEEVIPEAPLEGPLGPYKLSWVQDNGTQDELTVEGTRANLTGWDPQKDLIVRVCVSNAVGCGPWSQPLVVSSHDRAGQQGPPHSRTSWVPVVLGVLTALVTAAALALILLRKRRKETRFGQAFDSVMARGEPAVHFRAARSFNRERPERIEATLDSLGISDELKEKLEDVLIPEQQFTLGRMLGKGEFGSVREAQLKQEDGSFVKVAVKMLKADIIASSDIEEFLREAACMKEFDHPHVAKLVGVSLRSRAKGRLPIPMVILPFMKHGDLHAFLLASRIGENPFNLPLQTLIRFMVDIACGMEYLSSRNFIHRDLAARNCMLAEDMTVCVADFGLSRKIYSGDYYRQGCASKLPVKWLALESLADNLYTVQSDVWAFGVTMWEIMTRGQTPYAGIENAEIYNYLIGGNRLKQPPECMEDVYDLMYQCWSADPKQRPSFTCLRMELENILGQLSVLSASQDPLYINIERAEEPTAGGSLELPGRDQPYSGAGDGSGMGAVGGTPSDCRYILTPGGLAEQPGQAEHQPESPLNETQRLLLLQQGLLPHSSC
Procedure, shortened: (§1)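 Activity is measured by radiolabel transfer captured on P81 filters after a 2 h room-temperature reaction of kinase, substrate and cofactors. Values are percent inhibition against DMSO.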

TIE2/TEK = biological target: T2, TIE2/TEK (Homo sapiens, UniProt Q02763)
T2 construct: purchased Reaction Biology Corp
T2 sequence (Q02763 23-1124): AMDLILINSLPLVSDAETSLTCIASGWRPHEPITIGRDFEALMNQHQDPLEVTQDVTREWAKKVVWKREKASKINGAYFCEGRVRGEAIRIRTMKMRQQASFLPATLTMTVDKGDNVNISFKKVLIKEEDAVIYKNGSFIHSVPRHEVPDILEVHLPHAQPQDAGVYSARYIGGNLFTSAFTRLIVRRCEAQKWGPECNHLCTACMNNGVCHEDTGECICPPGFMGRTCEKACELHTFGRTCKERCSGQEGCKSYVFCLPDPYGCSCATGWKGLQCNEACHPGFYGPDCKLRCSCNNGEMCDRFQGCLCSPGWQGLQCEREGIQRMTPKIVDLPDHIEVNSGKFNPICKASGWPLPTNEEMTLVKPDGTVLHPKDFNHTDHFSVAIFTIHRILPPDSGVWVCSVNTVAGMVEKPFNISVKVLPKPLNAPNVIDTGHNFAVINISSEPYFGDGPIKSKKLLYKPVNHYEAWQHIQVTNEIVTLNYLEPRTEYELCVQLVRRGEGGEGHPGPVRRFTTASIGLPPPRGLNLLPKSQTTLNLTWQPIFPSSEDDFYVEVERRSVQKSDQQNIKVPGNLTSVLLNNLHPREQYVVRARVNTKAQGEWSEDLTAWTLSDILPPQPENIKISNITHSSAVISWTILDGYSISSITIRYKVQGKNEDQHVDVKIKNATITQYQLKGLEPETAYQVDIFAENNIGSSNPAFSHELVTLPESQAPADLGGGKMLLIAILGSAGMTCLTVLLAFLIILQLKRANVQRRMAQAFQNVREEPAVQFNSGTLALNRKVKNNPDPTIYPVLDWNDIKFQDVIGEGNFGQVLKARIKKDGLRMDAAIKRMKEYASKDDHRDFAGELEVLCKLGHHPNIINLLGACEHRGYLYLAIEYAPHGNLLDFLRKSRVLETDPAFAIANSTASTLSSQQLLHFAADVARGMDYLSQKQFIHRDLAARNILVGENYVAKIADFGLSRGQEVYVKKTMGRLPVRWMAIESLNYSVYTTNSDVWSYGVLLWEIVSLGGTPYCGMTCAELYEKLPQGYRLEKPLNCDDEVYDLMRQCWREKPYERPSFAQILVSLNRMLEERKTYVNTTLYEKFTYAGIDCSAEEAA
Procedure, shortened: as §1

MSK2/RPS6KA4 = biological target: T3, MSK2/RPS6KA4 (Homo sapiens, UniProt O75676)
T3 construct: purchased Reaction Biology Corp
T3 sequence (O75676 whole entry): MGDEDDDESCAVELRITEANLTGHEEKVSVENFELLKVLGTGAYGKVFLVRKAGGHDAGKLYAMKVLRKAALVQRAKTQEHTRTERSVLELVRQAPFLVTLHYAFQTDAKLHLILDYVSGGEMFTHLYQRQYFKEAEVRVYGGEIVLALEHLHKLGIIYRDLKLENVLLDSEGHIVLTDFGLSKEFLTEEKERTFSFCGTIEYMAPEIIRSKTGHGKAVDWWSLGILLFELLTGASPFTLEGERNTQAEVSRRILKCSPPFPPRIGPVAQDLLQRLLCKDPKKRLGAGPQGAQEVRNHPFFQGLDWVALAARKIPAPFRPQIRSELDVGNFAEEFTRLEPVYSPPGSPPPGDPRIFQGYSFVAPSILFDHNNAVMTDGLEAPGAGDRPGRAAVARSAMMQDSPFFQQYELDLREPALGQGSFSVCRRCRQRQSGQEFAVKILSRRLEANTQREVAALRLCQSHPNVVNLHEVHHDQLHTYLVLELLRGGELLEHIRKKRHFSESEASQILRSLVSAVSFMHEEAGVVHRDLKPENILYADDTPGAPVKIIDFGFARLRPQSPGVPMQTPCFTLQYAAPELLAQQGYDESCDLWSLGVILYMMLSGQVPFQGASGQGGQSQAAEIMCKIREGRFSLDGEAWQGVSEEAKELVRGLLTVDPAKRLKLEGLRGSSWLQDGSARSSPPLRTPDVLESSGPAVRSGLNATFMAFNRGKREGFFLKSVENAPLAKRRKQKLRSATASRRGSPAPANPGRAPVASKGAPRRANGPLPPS
Procedure, shortened: as §1

DAPK1 = biological target: T4, DAPK1 (Homo sapiens, UniProt P53355)
T4 construct: purchased Reaction Biology Corp
T4 sequence (P53355 whole entry): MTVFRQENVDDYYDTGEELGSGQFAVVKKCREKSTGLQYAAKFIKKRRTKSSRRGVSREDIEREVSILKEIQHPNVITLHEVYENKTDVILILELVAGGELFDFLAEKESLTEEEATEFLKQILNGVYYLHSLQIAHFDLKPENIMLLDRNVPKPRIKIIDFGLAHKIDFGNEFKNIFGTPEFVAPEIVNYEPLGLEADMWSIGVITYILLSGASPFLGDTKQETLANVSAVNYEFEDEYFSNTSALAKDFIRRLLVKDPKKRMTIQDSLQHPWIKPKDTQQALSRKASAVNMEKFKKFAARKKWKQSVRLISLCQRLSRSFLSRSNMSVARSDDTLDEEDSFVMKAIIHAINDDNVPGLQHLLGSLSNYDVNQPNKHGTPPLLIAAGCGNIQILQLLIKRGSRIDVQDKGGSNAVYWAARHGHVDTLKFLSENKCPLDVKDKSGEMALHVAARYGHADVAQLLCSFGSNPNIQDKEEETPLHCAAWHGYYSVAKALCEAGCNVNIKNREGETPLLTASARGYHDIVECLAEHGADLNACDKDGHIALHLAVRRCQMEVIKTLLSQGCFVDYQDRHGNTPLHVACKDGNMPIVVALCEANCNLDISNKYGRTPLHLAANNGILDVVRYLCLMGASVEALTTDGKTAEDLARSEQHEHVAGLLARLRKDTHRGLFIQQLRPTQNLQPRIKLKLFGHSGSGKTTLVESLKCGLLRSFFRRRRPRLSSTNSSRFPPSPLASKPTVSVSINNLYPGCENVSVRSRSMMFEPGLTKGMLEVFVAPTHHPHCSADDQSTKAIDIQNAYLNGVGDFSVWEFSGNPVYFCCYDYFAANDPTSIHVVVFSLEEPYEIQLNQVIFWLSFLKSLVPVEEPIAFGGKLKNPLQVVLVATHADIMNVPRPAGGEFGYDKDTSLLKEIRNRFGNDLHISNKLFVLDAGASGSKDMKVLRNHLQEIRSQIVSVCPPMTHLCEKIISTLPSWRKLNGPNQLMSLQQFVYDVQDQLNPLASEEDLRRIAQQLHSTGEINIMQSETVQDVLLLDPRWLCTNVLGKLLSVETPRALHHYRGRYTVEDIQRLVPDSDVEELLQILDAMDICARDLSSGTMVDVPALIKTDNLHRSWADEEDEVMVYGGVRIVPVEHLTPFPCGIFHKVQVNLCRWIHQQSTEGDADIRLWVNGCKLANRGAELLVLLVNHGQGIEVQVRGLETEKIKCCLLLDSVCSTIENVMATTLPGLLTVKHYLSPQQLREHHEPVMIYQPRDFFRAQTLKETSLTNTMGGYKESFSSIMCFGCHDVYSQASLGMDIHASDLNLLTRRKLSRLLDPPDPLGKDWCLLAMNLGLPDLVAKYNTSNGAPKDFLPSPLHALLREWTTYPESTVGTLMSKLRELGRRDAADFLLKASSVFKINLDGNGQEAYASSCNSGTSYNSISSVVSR
Procedure, shortened: as §1

TAOK3/JIK = biological target: T5, TAOK3/JIK (Homo sapiens, UniProt Q9H2K8)
T5 construct: purchased Reaction Biology Corp
T5 sequence (Q9H2K8 1-898): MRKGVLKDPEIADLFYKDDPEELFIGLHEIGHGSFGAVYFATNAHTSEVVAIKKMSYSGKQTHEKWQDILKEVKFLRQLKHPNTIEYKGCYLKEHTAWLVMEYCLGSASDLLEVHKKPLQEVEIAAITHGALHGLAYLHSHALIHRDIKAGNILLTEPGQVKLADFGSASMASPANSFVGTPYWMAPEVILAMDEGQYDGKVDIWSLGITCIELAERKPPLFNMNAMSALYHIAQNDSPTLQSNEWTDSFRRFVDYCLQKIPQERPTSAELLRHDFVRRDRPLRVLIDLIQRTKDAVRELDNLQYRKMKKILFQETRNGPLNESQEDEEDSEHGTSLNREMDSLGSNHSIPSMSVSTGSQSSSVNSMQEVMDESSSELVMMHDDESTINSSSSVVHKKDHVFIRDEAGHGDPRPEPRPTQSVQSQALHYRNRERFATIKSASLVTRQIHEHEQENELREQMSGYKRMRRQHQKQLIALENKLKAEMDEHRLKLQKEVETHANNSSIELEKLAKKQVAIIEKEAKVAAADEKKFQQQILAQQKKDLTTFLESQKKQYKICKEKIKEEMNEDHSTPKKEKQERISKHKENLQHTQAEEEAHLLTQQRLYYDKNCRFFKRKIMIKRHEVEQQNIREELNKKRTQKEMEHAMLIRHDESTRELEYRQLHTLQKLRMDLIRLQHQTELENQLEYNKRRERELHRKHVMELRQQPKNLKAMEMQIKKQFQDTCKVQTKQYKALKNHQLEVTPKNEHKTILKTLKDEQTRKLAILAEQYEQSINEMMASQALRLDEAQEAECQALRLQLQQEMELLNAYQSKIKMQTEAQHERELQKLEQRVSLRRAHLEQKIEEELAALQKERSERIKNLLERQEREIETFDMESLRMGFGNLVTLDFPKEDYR
Procedure, shortened: as §1

CAMK2d = biological target: T6, CAMK2d (Homo sapiens, UniProt Q13557)
T6 construct: purchased Reaction Biology Corp
T6 sequence (Q13557 whole entry): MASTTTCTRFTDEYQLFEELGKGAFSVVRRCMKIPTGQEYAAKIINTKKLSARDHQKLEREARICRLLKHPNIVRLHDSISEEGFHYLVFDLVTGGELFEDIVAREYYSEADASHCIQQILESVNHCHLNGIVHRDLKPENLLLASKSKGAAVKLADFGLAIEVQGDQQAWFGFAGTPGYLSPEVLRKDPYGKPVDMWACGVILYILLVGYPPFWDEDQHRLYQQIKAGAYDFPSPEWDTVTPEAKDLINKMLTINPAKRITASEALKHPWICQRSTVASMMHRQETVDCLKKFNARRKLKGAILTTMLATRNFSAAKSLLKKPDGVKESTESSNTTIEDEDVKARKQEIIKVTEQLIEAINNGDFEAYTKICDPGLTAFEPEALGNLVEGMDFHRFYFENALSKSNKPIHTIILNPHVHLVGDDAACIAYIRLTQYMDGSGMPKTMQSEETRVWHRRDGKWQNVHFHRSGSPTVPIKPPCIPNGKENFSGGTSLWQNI
Procedure, shortened: as §1

[1] = read-out: % Enzyme Activity (relative to DMSO controls) Run 1
[2] = read-out: % Enzyme Activity (relative to DMSO controls) Run 2

Structure (SMILES): C=CC(=O)Nc1cccc(Nc2nc(Nc3ccc(OCCOC)c(F)c3)ncc2F)c1 [Compound 2]
- inhibition at 3 µM (TYRO3/SKY): 4.03%
- remaining activity at 3 µM (TYRO3/SKY; [1]): 95.1%
- remaining activity at 3 µM (TYRO3/SKY; [2]): 96.8%
- inhibition at 3 µM (TIE2/TEK): -5.21%
- remaining activity at 3 µM (TIE2/TEK; [1]): 103%
- remaining activity at 3 µM (TIE2/TEK; [2]): 108%
- inhibition at 3 µM (MSK2/RPS6KA4): -0.36%
- remaining activity at 3 µM (MSK2/RPS6KA4; [1]): 103%
- remaining activity at 3 µM (MSK2/RPS6KA4; [2]): 97.4%
- inhibition at 3 µM (DAPK1): 1.86%
- remaining activity at 3 µM (DAPK1; [1]): 103%
- remaining activity at 3 µM (DAPK1; [2]): 93.5%
- inhibition at 3 µM (TAOK3/JIK): 7.74%
- remaining activity at 3 µM (TAOK3/JIK; [1]): 94.5%
- remaining activity at 3 µM (TAOK3/JIK; [2]): 90%
- inhibition at 3 µM (CAMK2d): -23.3%
- remaining activity at 3 µM (CAMK2d; [1]): 124%
- remaining activity at 3 µM (CAMK2d; [2]): 123%
